Test results from patent publication US12521393B2, “Cytotoxicity targeting chimeras for CCR2-expressing cells” (GLAXOSMITHKLINE INTELLECTUAL PROPERTY DEVELOPMENT LIMITED, priority 2021, dated 2026).

Tests used:
[1] = tested on: endogenous target monocytes in human PBMC; assay: PBMC ex vivo monocyte depletion flow cytometry assay (Example 200); assay type: cell-based; conditions: with anti-cotinine antibody (SEQ ID NO: 11/12), 18-24 hours, EC50 in molar, read-out: Ex Vivo Depletion Assay pEC50 (converted)
Summary of the method: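 Monocyte depletion is reported as pEC50, averaged or given individually across runs, and read by flow cytometry staining CD45, CD14 and CD4 with a viability dye. Compounds, diluted four-fold over 11 points from 1 mM DMSO stocks, were combined with 30 μg/mL Fc-enhanced anti-cotinine antibody and human PBMC, then incubated 18-24 h at 37° C.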

[2] = tested on: CCR2 expressing cells (CD11b+Ly6c+Hi) in peripheral blood; assay: In vivo depletion assay, flow cytometry of peripheral blood (Example 201); design: species or system human CCR2 knock-in mice (C57 background); conditions: hCCR2 knock-in mice, IV 0.1 mpk compound + 10 mpk anti-cotinine antibody (SEQ ID NO: 13/14), peripheral blood at 48 hr
Summary of the method: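 Mice dosed with compound formulated in saline/DMSO/PBS, with anti-cotinine antibody (rabbit variable region, mouse IgG2a Fc) where required, pre-incubated 30 min at room temperature. Terminal peripheral blood RBC-lysed, Fc-blocked, stained for CD45, CD3, CD11b, Ly6C, human CCR2 and 7AAD; percent depletion of CD11b+Ly6c+Hi cells determined by flow cytometry.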

SMILES | EC50 [1] [nM] | % Depletion of CCR2 expressing cells [2] [%]
CCN1C(=O)C[C@H](C(=O)NCCOCCOCCOCCC(=O)N[C@H]2CC[C@@H](C(=O)N[C@@H]3C[C@H](N(C)C(C)C)CC[C@@H]3N3CC[C@H](Nc4ncnc5ccc(C(F)(F)F)cc45)C3=O)CC2)[C@H]1c1cccnc1 [Example 34, (2S,3S)-1-ethyl-N-(2-(2-(2-(3-((cis-4-(((1R,2S,5R)-5-(isopropyl(methyl)amino)-2-((S)-2-oxo-3-((6-(trifluoromethyl)quinazolin-4-yl)amino)pyrrolidin-1-yl)cyclohexyl)carbamoyl)cyclohexyl)amino)-3-oxopropoxy)ethoxy)ethoxy)ethyl)-5-oxo-2-(pyridin-3-yl)pyrrolidine-3-carboxamide] | 1.58 | 95
CCN1C(=O)C[C@H](C(=O)NCCOCCOCCOCCC(=O)N[C@H]2CC[C@@H](C(=O)N[C@@H]3C[C@H](NC(C)(C)C)CC[C@@H]3N3CC[C@H](Nc4ncnc5ccc(C(F)(F)F)cc45)C3=O)CC2)[C@H]1c1cccnc1 [Example 35, (2S,3S)-N-(2-(2-(2-(3-(((1S,4s)-4-(((1R,2S,5R)-5-(tert-butylamino)-2-((S)-2-oxo-3-((6-(trifluoromethyl)quinazolin-4-yl)amino)pyrrolidin-1-yl)cyclohexyl)carbamoyl)cyclohexyl)amino)-3-oxopropoxy)ethoxy)ethoxy)ethyl)-1-ethyl-5-oxo-2-(pyridin-3-yl)pyrrolidine-3-carboxamide] | 0.631 | 88.81
CN1C(=O)C[C@H](C(=O)NCCOCCOCCOCCOCCOCCC(=O)N[C@@H]2C[C@H](NC(C)(C)C)CC[C@@H]2N2CC[C@H](Nc3ncnc4ccc(C(F)(F)F)cc34)C2=O)[C@H]1c1cccnc1 [Example 37, (2S,3S)-N-(18-(((1R,2S,5R)-5-(tert-Butylamino)-2-((S)-2-oxo-3-((6-(trifluoromethyl)quinazolin-4-yl)amino)pyrrolidin-1-yl)cyclohexyl)amino)-18-oxo-3,6,9,12,15-pentaoxaoctadecyl)-1-methyl-5-oxo-2-(pyridin-3-yl)pyrrolidine-3-carboxamide] | 5.01 | 75
CN1C(=O)C[C@H](C(=O)NCCOCCOCCOCCOCCOCCOCCC(=O)N[C@@H]2C[C@H](NC(C)(C)C)CC[C@@H]2N2CC[C@H](Nc3ncnc4ccc(C(F)(F)F)cc34)C2=O)[C@H]1c1cccnc1 [Example 38, (2S,3S)-N-(21-(((1R,2S,5R)-5-(tert-Butylamino)-2-((S)-2-oxo-3-((6-(trifluoromethyl)quinazolin-4-yl)amino)pyrrolidin-1-yl)cyclohexyl)amino)-21-oxo-3,6,9,12,15,18-hexaoxahenicosyl)-1-methyl-5-oxo-2-(pyridin-3-yl)pyrrolidine-3-carboxamide] | 1.58 | 84.55
CC(C)N(C)[C@@H]1CC[C@H](N2CC[C@H](Nc3ncnc4ccc(C(F)(F)F)cc34)C2=O)[C@H](NC(=O)C2CCC(NC(=O)CCOCCNC(=O)CCOCCNC(=O)[C@H]3CC(=O)N(C)[C@@H]3c3cccnc3)CC2)C1 (stereo partly drawn) [Example 48, (2S,3S)-N-(2-(3-((2-(3-(((1R,4r)-4-(((1R,2S,5R)-5-(Isopropyl(methyl)amino)-2-((S)-2-oxo-3-((6-(trifluoromethyl)quinazolin-4-yl)amino)pyrrolidin-1-yl)cyclohexyl)carbamoyl)cyclohexyl)amino)-3-oxopropoxy)ethyl)amino)-3-oxopropoxy)ethyl)-1-methyl-5-oxo-2-(pyridin-3-yl)pyrrolidine-3-carboxamide] | 2 | 89
CC(C)N(C)[C@@H]1CC[C@H](N2CC[C@H](Nc3ncnc4ccc(C(F)(F)F)cc34)C2=O)[C@H](NC(=O)[C@H]2C[C@@H](NC(=O)CCOCCOCCNC(=O)CCNC(=O)[C@H]3CC(=O)N(C)[C@@H]3c3cccnc3)C2)C1 [Example 49, (2S,3S)-N-(3-((2-(2-(3-(((1S,3s)-3-(((1R,2S,5R)-5-(Isopropyl(methyl)amino)-2-((S)-2-oxo-3-((6-(trifluoromethyl)quinazolin-4-yl)amino)pyrrolidin-1-yl)cyclohexyl)carbamoyl)cyclobutyl)amino)-3-oxopropoxy)ethoxy)ethyl)amino)-3-oxopropyl)-1-methyl-5-oxo-2-(pyridin-3-yl)pyrrolidine-3-carboxamide] | 0.501 | 85.84
CC(C)N(C)[C@@H]1CC[C@H](N2CC[C@H](Nc3ncnc4ccc(C(F)(F)F)cc34)C2=O)[C@H](NC(=O)[C@H]2CC[C@@H](NC(=O)CCCO[C@H]3CC[C@H](NC(=O)CCNC(=O)[C@@H]4CC(=O)N(C)[C@H]4c4cccnc4)CC3)CC2)C1 [Example 52, (2S,3S)-N-(3-(((1R,4S)-4-(4-(((1S,4S)-4-(((1R,2S,5R)-5-(Isopropyl(methyl)amino)-2-((S)-2-oxo-3-((6-(trifluoromethyl)quinazolin-4-yl)amino)pyrrolidin-1-yl)cyclohexyl)carbamoyl)cyclohexyl)amino)-4-oxobutoxy)cyclohexyl)amino)-3-oxopropyl)-1-methyl-5-oxo-2-(pyridin-3-yl)pyrrolidine-3-carboxamide] | 0.2 | 79.18
CC(C)N(C)[C@@H]1CC[C@H](N2CC[C@H](Nc3ncnc4ccc(C(F)(F)F)cc34)C2=O)[C@H](NC(=O)[C@H]2CC[C@H](NC(=O)CCOC[C@H]3CC[C@H](COCCNC(=O)[C@H]4CC(=O)N(C)[C@@H]4c4cccnc4)CC3)CC2)C1 [Example 53, (2S,3S)-N-(2-(((1R,4S)-4-((3-(((1R,4R)-4-(((1R,2S,5R)-5-(Isopropyl(methyl)amino)-2-((S)-2-oxo-3-((6-(trifluoromethyl)quinazolin-4-yl)amino)pyrrolidin-1-yl)cyclohexyl)carbamoyl)cyclohexyl)amino)-3-oxopropoxy)methyl)cyclohexyl)methoxy)ethyl)-1-methyl-5-oxo-2-(pyridin-3-yl)pyrrolidine-3-carboxamide] | 0.631 | 68.42
CC(C)N(C)[C@@H]1CC[C@H](N2CC[C@H](Nc3ncnc4ccc(C(F)(F)F)cc34)C2=O)[C@H](NC(=O)[C@H]2CC[C@H](NC(=O)CCCOC[C@H]3CC[C@@H](COCCNC(=O)[C@H]4CC(=O)N(C)[C@@H]4c4cccnc4)CC3)CC2)C1 [Example 57, (2S,3S)-N-(2-(((1S,4R)-4-((4-(((1R,4R)-4-(((1R,2S,5R)-5-(Isopropyl(methyl)amino)-2-((S)-2-oxo-3-((6-(trifluoromethyl)quinazolin-4-yl)amino)pyrrolidin-1-yl)cyclohexyl)carbamoyl)cyclohexyl)amino)-4-oxobutoxy)methyl)cyclohexyl)methoxy)ethyl)-1-methyl-5-oxo-2-(pyridin-3-yl)pyrrolidine-3-carboxamide] | 1.58 | 77
CC(C)N(C)[C@@H]1CC[C@H](N2CC[C@H](Nc3ncnc4ccc(C(F)(F)F)cc34)C2=O)[C@H](NC(=O)[C@H]2CC[C@@H](CC(=O)CCCOC[C@H]3CC[C@H](COCCNC(=O)[C@H]4CC(=O)N(C)[C@@H]4c4cccnc4)CC3)CC2)C1 [Example 60, (2S,3S)-N-(2-(((1R,4S)-4-(((5-((1S,4S)-4-(((1R,2S,5R)-5-(Isopropyl(methyl)amino)-2-((S)-2-oxo-3-((6-(trifluoromethyl)quinazolin-4-yl)amino)pyrrolidin-1-yl)cyclohexyl)carbamoyl)cyclohexyl)-4-oxopentyl)oxy)methyl)cyclohexyl)methoxy)ethyl)-1-methyl-5-oxo-2-(pyridin-3-yl)pyrrolidine-3-carboxamide] | 0.631 | 90
CC(C)N(C)[C@@H]1CC[C@H](N2CC[C@H](Nc3ncnc4ccc(C(F)(F)F)cc34)C2=O)[C@H](NC(=O)CCNC(=O)CCCOC[C@H]2CC[C@@H](COCCNC(=O)[C@H]3CC(=O)N(C)[C@@H]3c3cccnc3)CC2)C1 [Example 62, (2S,3S)-N-(2-(((1S,4R)-4-((4-((3-(((1R,2S,5R)-5-(Isopropyl(methyl)amino)-2-((S)-2-oxo-3-((6-(trifluoromethyl)quinazolin-4-yl)amino)pyrrrolidin-1-yl)cyclohexyl)amino)-3-oxopropyl)amino)-4-oxobutoxy)methyl)cyclohexyl)methoxy)ethyl)-1-methyl-5-oxo-2-(pyridin-3-yl)pyrrolidine-3-carboxamide] | 0.501 | 56
CC(C)N(C)[C@@H]1CC[C@H](N2CC[C@H](Nc3ncnc4ccc(C(F)(F)F)cc34)C2=O)[C@H](NC(=O)[C@H]2CC[C@@H](NC(=O)CCOCCOCCNC(=O)CNC(=O)[C@H]3CC(=O)N(C)[C@@H]3c3cccnc3)CC2)C1 [Example 63, (2S,3S)-N-(2-((2-(2-(3-(((1S,4s)-4-(((1R,2S,5R)-5-(Isopropyl(methyl)amino)-2-((S)-2-oxo-3-((6-(trifluoromethyl)quinazolin-4-yl)amino)pyrrolidin-1-yl)cyclohexyl)carbamoyl)cyclohexyl)amino)-3-oxopropoxy)ethoxy)ethyl)amino)-2-oxoethyl)-1-methyl-5-oxo-2-(pyridin-3-yl)pyrrolidine-3-carboxamide] | 0.631 | 82
